Measured values: patent publication US9550739B2, “Molecules having certain pesticidal utilities, and intermediates, compositions, and processes related thereto” (priority 2014, dated 2017)

Columns and labels:
Format in all cases: in vivo
[1] = tested on: Beet Armyworm (Spodoptera exigua, LAPHEG) ("BAW"); test: Bioassays on Beet Armyworm (BAW), 128-well diet tray assay; conditions: second instar BAW larvae, 50 μg/cm^2 on artificial diet, five to seven days, 25° C.; for mortality at 50 µg/cm2: Spodoptera exigua, 168 h, read-out: BAW % Control (or Mortality) rating
Method: (§1) Certain molecules disclosed in this document were tested against BAW and CEW using procedures described in the following examples. In the reporting of the results, the “BAW & CL Rating Table” was used (See Table Section).
Bioassays on BAW were conducted using a 128-well diet tray assay. one to five second instar BAW larvae were placed in each well (3 mL) of the diet tray that had been previously filled with 1 mL of artificial diet to which 50 μg/cm^2 of the test compound (dissolved in 50 μL of 90:10 acetone-water mixture) had been applied (to each of eight wells) and then allowed to dry. Trays were covered with a clear self-adhesive cover and held at 25° C., 14:10 light-dark for five to seven days. Percent mortality was recorded for the larvae in each well; activity in the eight wells was then averaged. The results are indicated in the table entitled “Table ABC: Biological Results” (See Table Section).

[2] = tested on: Cabbage Looper (Trichoplusia ni, TRIPNI) ("CL"); test: Bioassays on Cabbage Looper (CL), 128-well diet tray assay; conditions: for mortality at 50 µg/cm2: Trichoplusia ni, 168 h, read-out: CL % Control (or Mortality) rating
Method: as §1
Bioassays on CL were conducted using a 128-well diet tray assay. one to five second instar CL larvae were placed in each well (3 mL) of the diet tray that had been previously filled with 1 mL of artificial diet to which 50 μg/cm^2 of the test compound (dissolved in 50 μL of 90:10 acetone-water mixture) had been applied (to each of eight wells) and then allowed to dry. Trays were covered with a clear self-adhesive cover and held at 25° C., 14:10 light-dark for five to seven days. Percent mortality was recorded for the larvae in each well; activity in the eight wells was then averaged. The results are indicated in the table entitled “Table ABC: Biological Results” (See Table Section).

[3] = tested on: Yellow Fever Mosquito (Aedes aegypti, AEDSAE) ("YFM"); conditions: about 1 day-old larvae, 4000 ppm master solution diluted, 3 days, room temperature
Method: Certain molecules disclosed in this document were tested against YFM using procedures described in the following paragraph. In the reporting of the results, the “YFM Rating Table” was used (See Table Section).
Master plates containing 400 μg of a molecule dissolved in 100 μL of dimethyl sulfoxide (DMSO) (equivalent to a 4000 ppm solution) are used. A master plate of assembled molecules contains 15 μL per well. To this plate, 135 μL of a 90:10 water:acetone mixture is added to each well. A robot (Biomek® NXP Laboratory Automation Workstation) is programmed to dispense 15 μL aspirations from the master plate into an empty 96-well shallow plate (“daughter” plate). There are 6 reps (“daughter” plates) created per master. The created daughter plates are then immediately infested with YFM larvae.
The day before plates are to be treated, mosquito eggs are placed in Millipore water containing liver powder to begin hatching (4 g. into 400 mL). After the daughter plates are created using the robot, they are infested with 220 μL of the liver powder/larval mosquito mixture (about 1 day-old larvae). After plates are infested with mosquito larvae, a non-evaporative lid is used to cover the plate to reduce drying. Plates are held at room temperature for 3 days prior to grading. After 3 days, each well is observed and scored based on mortality.

Compound	mortality at 50 µg/cm2 [1]	mortality at 50 µg/cm2 [2]	YFM % Control (or Mortality) rating [3]	BAW % Control (or Mortality) rating [1]	CL % Control (or Mortality) rating ([2]; second instar CL larvae, 50 μg/cm^2 on artificial diet, five to seven days, 25° C.)
O=C(Nc1ccc(-c2ncn(-c3ccc(OC(F)(F)F)cc3)n2)cc1)c1cc(-c2ccccc2)ccc1F [F48, 4-Fluoro-N-(4-(1-(4-(trifluoromethoxy)phenyl)-1H-1,2,4-triazol-3-yl)phenyl)-[1,1′-biphenyl]-3-carboxamide]	0%	50 to 100%	D (No activity noticed in this bioassay)		
CC(=O)c1ccccc1-c1cccc(C(=O)Nc2ccc(-c3ncn(-c4ccc(OC(F)(F)F)cc4)n3)cc2)c1 [F41, 2′-Acetyl-N-(4-(1-(4-(trifluoromethoxy)phenyl)-1H-1,2,4-triazol-3-yl)phenyl)-[1,1′-biphenyl]-3-carboxamide]	50 to 100%	50 to 100%	A (80-100)		
6-Methoxy-N-(4-(1-(4-(trifluoromethoxy)phenyl)-1H-1,2,4-triazol-3-yl)phenethyl)-[1,1′-biphenyl]-3-carboxamide [F56]			A (80-100)	A (50-100)	A (50-100)
O=C(Nc1ccc(-c2ncn(-c3ccc(OC(F)(F)F)cc3)n2)cc1)c1cccc(-c2ccccc2OC(F)(F)F)c1 [F1, 2′-(Trifluoromethoxy)-N-(4-(1-(4-(trifluoromethoxy)phenyl)-1H-1,2,4-triazol-3-yl)phenyl)-[1,1′-biphenyl]-3-carboxamide]	0%	50 to 100%	D (No activity noticed in this bioassay)		
COc1ccc(C(=O)Nc2ccc(-c3ncn(-c4ccc(OC(F)(F)C(F)(F)F)cc4)n3)cc2)cc1-c1ccccc1 [F13, 6-Methoxy-N-(4-(1-(4-(perfluoroethoxy)phenyl)-1H-1,2,4-triazol-3-yl)phenyl)-[1,1′-biphenyl]-3-carboxamide]	0%	50 to 100%	D (No activity noticed in this bioassay)		
Cc1cccc(C)c1-c1cccc(C(=S)Nc2ccc(-c3ncn(-c4ccc(OC(F)(F)F)cc4)n3)cc2)c1 [F46, 2′,6′-dimethyl-N-(4-(1-(4-(trifluoromethoxy)phenyl)-1H-1,2,4-triazol-3-yl)phenyl)-[1,1′-biphenyl]-3-carbothioamide]	0 to 50%	0%	D (No activity noticed in this bioassay)		
O=C(Nc1ccc(-c2ncn(-c3ccc(OC(F)(F)F)cc3)n2)cc1)c1cc(-c2ccccc2)ccc1Cl [F15, 4-Chloro-N-(4-(1-(4-(trifluoromethoxy)phenyl)-1H-1,2,4-triazol-3-yl)phenyl)-[1,1′-biphenyl]-3-carboxamide]	0%	0%	D (No activity noticed in this bioassay)		
O=C(Nc1ccc(-c2ncn(-c3ccc(OC(F)(F)C(F)(F)F)cc3)n2)cc1)c1cccc(-c2ccccc2)c1 [F45, N-(4-(1-(4-(perfluoroethoxy)phenyl)-1H-1,2,4-triazol-3-yl)phenyl)-[1,1′-biphenyl]-3-carboxamide]	50 to 100%	50 to 100%	D (No activity noticed in this bioassay)		
O=C(Nc1ccc(-c2ncn(-c3ccc(OC(F)(F)F)cc3)n2)cc1)c1ccc(Cl)c(-c2ccccc2)c1 [F34, 6-Chloro-N-(4-(1-(4-(trifluoromethoxy)phenyl)-1H-1,2,4-triazol-3-yl)phenyl)-[1,1′-biphenyl]-3-carboxamide]	50 to 100%	50 to 100%	D (No activity noticed in this bioassay)		
O=C(Nc1ccc(-c2ncn(-c3ccc(OC(F)(F)F)cc3)n2)cc1)c1ccc(F)c(-c2ccccc2F)c1 [F28, 2′,6-Difluoro-N-(4-(1-(4-(trifluoromethoxy)phenyl)-1H-1,2,4-triazol-3-yl)phenyl)-[1,1′-biphenyl]-3-carboxamide]	50 to 100%	50 to 100%	A (80-100)		
O=C(Nc1ccc(-c2ncn(-c3ccc(C(F)(F)F)cc3)n2)cc1)c1ccc(F)c(-c2ccccc2)c1 [F62, 6-Fluoro-N-(4-(1-(4-(trifluoromethyl)phenyl)-1H-1,2,4-triazol-3-yl)phenyl)-[1,1′-biphenyl]-3-carboxamide]	50 to 100%	50 to 100%	B (More than 0-Less than 80)		
O=C(Nc1ccc(-c2ncn(-c3ccc(OC(F)(F)F)cc3)n2)cc1)c1cccc(-c2ccc(Cl)cc2Cl)n1 [F18, 6-(2,4-Dichlorophenyl)-N-(4-(1-(4-(trifluoromethoxy)phenyl)-1H-1,2,4-triazol-3-yl)phenyl)picolinamide]	0%	0%	D (No activity noticed in this bioassay)		
COc1ccccc1-c1cc(C(=O)Nc2ccc(-c3ncn(-c4ccc(OC(F)(F)C(F)(F)F)cc4)n3)cc2)ccc1F [F7, 6-Fluoro-2′-methoxy-N-(4-(1-(4-(perfluoroethoxy)phenyl)-1H-1,2,4-triazol-3-yl)phenyl)-[1,1′-biphenyl]-3-carboxamide]	50 to 100%	50 to 100%	D (No activity noticed in this bioassay)		
COc1ccccc1-c1cccc(C(=O)Nc2ccc(-c3ncn(-c4ccc(OC(C)C)cc4)n3)cc2)c1 [F5, N-(4-(1-(4-isopropoxyphenyl)-1H-1,2,4-triazol-3-yl)phenyl)-2′-methoxy-[1,1′-biphenyl]-3-carboxamide]	50 to 100%	50 to 100%	B (More than 0-Less than 80)		
O=C(NCCc1ccc(-c2ncn(-c3ccc(OC(F)(F)F)cc3)n2)cc1)c1ccc(F)c(-c2ccccc2)c1 [F51, 6-Fluoro-N-(4-(1-(4-(trifluoromethoxy)phenyl)-1H-1,2,4-triazol-3-yl)phenethyl)-[1,1′-biphenyl]-3-carboxamide]	50 to 100%	0%	D (No activity noticed in this bioassay)		
COc1ccccc1-c1cccc(C(=O)Nc2ccc(-c3ncn(-c4ccc(OC(F)(F)F)cc4)n3)cc2)c1 [F22, 2′-Methoxy-N-(4-(1-(4-(trifluoromethoxy)phenyl)-1H-1,2,4-triazol-3-yl)phenyl)-[1,1′-biphenyl]-3-carboxamide]	50 to 100%	50 to 100%	A (80-100)		
O=C(Nc1ccc(-c2ncn(-c3ccc(OC(F)(F)C(F)(F)F)cc3)n2)cc1)c1cc(Cl)cc(-c2ccccc2)c1 [F6, 5-Chloro-N-(4-(1-(4-(perfluoroethoxy)phenyl)-1H-1,2,4-triazol-3-yl)phenyl)-[1,1′-biphenyl]-3-carboxamide]	0%	0%	D (No activity noticed in this bioassay)		
Cc1cccc(C)c1-c1cccc(C(=O)Nc2ccc(-c3ncn(-c4ccc(OC(F)(F)C(F)(F)F)cc4)n3)cc2)c1 [F31, 2′,6′-Dimethyl-N-(4-(1-(4-(perfluoroethoxy)phenyl)-1H-1,2,4-triazol-3-yl)phenyl)-[1,1′-biphenyl]-3-carboxamide]	50 to 100%	50 to 100%	D (No activity noticed in this bioassay)		
COc1ccccc1-c1cc(C(=O)NCCc2ccc(-c3ncn(-c4ccc(OC(F)(F)F)cc4)n3)cc2)ccc1F [F54, 6-Fluoro-2′-methoxy-N-(4-(1-(4-(trifluoromethoxy)phenyl)-1H-1,2,4-triazol-3-yl)phenethyl)-[1,1′-biphenyl]-3-carboxamide]	50 to 100%	50 to 100%			
